Measured values as given in ChEMBL document CHEMBL3885861, “Open TG-GATES”.

Species: Rattus norvegicus
Assay: Open TG-GATES - Regimen: Daily Repeat
Type: toxicity, organism-based, Sprague-Dawley
Set-up: regimen Daily Repeat, gender Male, age 6 weeks
Settings: in vivo, po, route gavage; for A/G / ALP / ALT / AST / BUN / CRE / Ca / Cl / DBIL / GLC / IP / K / LDH / Na / PL / RALB / TBIL / TC / TG / TP / gamma-GTP: tissue Plasma; for APTT / Bas / Eos / Fbg / Hb / Ht / Lym / MCH / MCHC / MCV / Mono / Neu / PT / Plat / RBC / Ret / WBC: tissue Blood; for KIDNEY_L / KIDNEY_R / KIDNEY_TOTAL: tissue Kidney; for LIVER: tissue Liver
[1] = 2 mg/kg, […], dose level Middle, time 7 day
[2] = 2 mg/kg, […], dose level Middle, time 14 day
[3] = 2 mg/kg, […], dose level Middle, time 28 day
[4] = 5 mg/kg, 72 h, dose level High, time 3 day
[5] = 5 mg/kg, […], dose level High, time 7 day
[6] = 5 mg/kg, […], dose level High, time 14 day

COc1ccc2c(c1)c(CC(=O)O)c(C)n2C(=O)c1ccc(Cl)cc1 [INDOMETHACIN]
A/G [1]: 2
ALP [1]: 1041.2 IU/L
ALT [1]: 33.2 IU/L
AST [1]: 61.4 IU/L
BUN [1]: 19.4 mg/dL
CRE [1]: 0.6 mg/dL
Ca [1]: 11.3 mg/dL
Cl [1]: 106.4 meq/L
DBIL [1]: 0.006 mg/dL
GLC [1]: 192.2 mg/dL
IP [1]: 8.4 mg/dL
K [1]: 4.8 meq/L
LDH [1]: 105.8 IU/L
Na [1]: 140 meq/L
PL [1]: 163.8 mg/dL
RALB [1]: 4.1 g/dL
TBIL [1]: 0.4 mg/dL
TC [1]: 88 mg/dL
TG [1]: 134.2 mg/dL
TP [1]: 6.3 g/dL
gamma-GTP [1]: 1 IU/L
A/G [2]: 1.9
ALP [2]: 898.8 IU/L
ALT [2]: 32 IU/L
AST [2]: 53.2 IU/L
BUN [2]: 22.6 mg/dL
CRE [2]: 0.6 mg/dL
Ca [2]: 10.8 mg/dL
Cl [2]: 106.2 meq/L
DBIL [2]: 0.006 mg/dL
GLC [2]: 201.2 mg/dL
IP [2]: 8.3 mg/dL
K [2]: 4.7 meq/L
LDH [2]: 89.8 IU/L
Na [2]: 139.6 meq/L
PL [2]: 151.4 mg/dL
RALB [2]: 4.1 g/dL
TBIL [2]: 0.3 mg/dL
TC [2]: 72.2 mg/dL
TG [2]: 141.2 mg/dL
TP [2]: 6.3 g/dL
gamma-GTP [2]: 1 IU/L
A/G [3]: 1.7
ALP [3]: 678.8 IU/L
ALT [3]: 31.6 IU/L
AST [3]: 65 IU/L
BUN [3]: 21.4 mg/dL
CRE [3]: 0.7 mg/dL
Ca [3]: 10.7 mg/dL
Cl [3]: 107 meq/L
DBIL [3]: 0.004 mg/dL
GLC [3]: 185.2 mg/dL
IP [3]: 7.5 mg/dL
K [3]: 4.4 meq/L
LDH [3]: 90.4 IU/L
Na [3]: 140.4 meq/L
PL [3]: 157.4 mg/dL
RALB [3]: 4.3 g/dL
TBIL [3]: 0.3 mg/dL
TC [3]: 80 mg/dL
TG [3]: 179.2 mg/dL
TP [3]: 6.8 g/dL
gamma-GTP [3]: 1.8 IU/L
TERMINAL_BW [4]: 240.2 g
APTT [4]: 16.8 s
Bas [4]: 0%
Eos [4]: 0.6%
Fbg [4]: 308.4 mg/dL
Hb [4]: 12.7 g/dL
Ht [4]: 38%
Lym [4]: 68.4%
MCH [4]: 21.5 pg
MCHC [4]: 33.5%
MCV [4]: 64.4 fL
Mono [4]: 12.4%
Neu [4]: 18.6%
PT [4]: 11.1 s
Plat [4]: 98 x10_4/uL
RBC [4]: 589.8 x10_4/ul
Ret [4]: 7.9%
WBC [4]: 137.8 x10_2/uL
KIDNEY_L [4]: 1.1 g
KIDNEY_R [4]: 1.1 g
KIDNEY_TOTAL [4]: 2.2 g
LIVER [4]: 12.4 g
A/G [4]: 1.7
ALP [4]: 739.2 IU/L
ALT [4]: 29.8 IU/L
AST [4]: 54 IU/L
BUN [4]: 16.2 mg/dL
CRE [4]: 0.6 mg/dL
Ca [4]: 10.5 mg/dL
Cl [4]: 107.6 meq/L
DBIL [4]: 0.038 mg/dL
GLC [4]: 191.6 mg/dL
IP [4]: 8.3 mg/dL
K [4]: 4.6 meq/L
LDH [4]: 160.4 IU/L
Na [4]: 140.4 meq/L
PL [4]: 147 mg/dL
RALB [4]: 3.4 g/dL
TBIL [4]: 0.3 mg/dL
TC [4]: 76.2 mg/dL
TG [4]: 135.4 mg/dL
TP [4]: 5.5 g/dL
gamma-GTP [4]: 1.6 IU/L
TERMINAL_BW [5]: 244 g
APTT [5]: 18.4 s
Bas [5]: 0%
Eos [5]: 0.8%
Fbg [5]: 377 mg/dL
Hb [5]: 11.7 g/dL
Ht [5]: 35%
Lym [5]: 51.5%
MCH [5]: 20.4 pg
MCHC [5]: 33.4%
MCV [5]: 61.1 fL
Mono [5]: 12.2%
Neu [5]: 36%
PT [5]: 11.8 s
Plat [5]: 143.2 x10_4/uL
RBC [5]: 571.8 x10_4/ul
Ret [5]: 10.2%
WBC [5]: 128.2 x10_2/uL
PT [6]: 11.3 s
KIDNEY_L [5]: 1.1 g
KIDNEY_R [5]: 1.1 g
KIDNEY_TOTAL [5]: 2.2 g
LIVER [5]: 11.6 g
A/G [5]: 1.2
ALP [5]: 1313 IU/L
ALT [5]: 31.2 IU/L
AST [5]: 91.5 IU/L
BUN [5]: 19.8 mg/dL
CRE [5]: 0.6 mg/dL
Ca [5]: 10.8 mg/dL
Cl [5]: 102.2 meq/L
DBIL [5]: 0.1 mg/dL
GLC [5]: 169.8 mg/dL
IP [5]: 11.3 mg/dL
K [5]: 6.1 meq/L
LDH [5]: 180.8 IU/L
Na [5]: 133.5 meq/L
PL [5]: 135.8 mg/dL
RALB [5]: 2.9 g/dL
TBIL [5]: 0.4 mg/dL
TC [5]: 71 mg/dL
TG [5]: 106.5 mg/dL
TP [5]: 5.6 g/dL
gamma-GTP [5]: 5.8 IU/L
TBIL [6]: 0.3 mg/dL
TC [6]: 66.5 mg/dL
